Test [1] has as its system GEMM riboswitch C92U, G20A mutant. As to the kind of experiment: Gel-shift Kd measurement, C92U, G20A double mutant RNA. The class given is binding, Vibrio cholerae. The note with it: for Kd: gel-shift, RNA C92U, G20A, dash = no binding. From the text:
(§1) Point mutants were cloned using the Quik Change protocol. Radiolabeled c-di-GMP was obtained enzymatically according to published procedures and purified by polyacrylamide gel electrophoresis (PAGE) (Paul, R. et al. Cell cycle-dependent dynamic localization of a bacterial response regulator with a novel di-guanylate cyclase output domain. Genes & Development 18, 715-27 (2004); Christen, M., Christen, B., Folcher, M., Schauerte, A. & Jenal, U. Identification and characterization of a cyclic di-GMP-specific phosphodiesterase and its allosteric control by GTP. J Biol Chem 280, 30829-37 (2005)). A constitutively active DGC, PleD* was expressed and purified as described and the reaction was initiated using [α-^32P]GTP as the substrate (Paul, R. et al. Cell cycle-dependent dynamic localization of a bacterial response regulator with a novel di-guanylate cyclase output domain. Genes & Development 18, 715-27 (2004)). A single band appeared as the reaction proceeded that ran slower than the starting material when purified by PAGE. Radiolabeled c-diAMP was obtained similarly, using the protein DisA and [α-^32P]ATP as the substrate. Riboswitch RNAs were folded in the presence of radiolabeled c-di-GMP or c-diAMP and folding buffer. The complex was allowed to equilibrate for 1 hour and bound and free c-di-GMP were separated by native (100 mM Tris/HEPES pH 7.5, 10 mM MgCl2, 0.1 mM EDTA) PAGE at 4° C. A STORM phosphorimager was used to scan gels and the bands were quantitated using ImageQuant. Fraction bound was graphed versus RNA concentration and fit using KaleidaGraph to obtain Kds according to the equation:
(§2) F=fraction bound; F∞=fraction bound at saturation; C=riboswitch concentration
A gel-shift assay, which directly measures c-di-GMP binding to the GEMM RNA (FIG. 3A, B), was developed in order to test biochemical predictions resulting from the GEMM riboswitch structure. Specifically, radiolabeled c-di-GMP was incubated with the riboswitch and the RNA bound ligand was separated from the free on a native polyacrylamide gel. […]

Test [2] has as its target GEMM riboswitch Vc2 91 (WT-91). As to the kind of experiment: Gel-shift Kd measurement, WT-91 RNA (crystallization construct with no U1A binding loop). Further details: species or system Vibrio cholerae. To be noted: radiolabeled ligand, RNA WT-91, dash = no binding seen.
Text: as §1, with “The complex was allowed to equilibrate for 1 hour and bound and free c-di-GMP were separated by native (100 mM Tris/HEPES pH 7.5, 10 mM MgCl2, 0.1 mM EDTA) PAGE at 4° C.” left out, “Fraction bound was graphed versus RNA concentration and fit using KaleidaGraph to obtain Kds according to the equation:” left out

Test [3] deals with GEMM riboswitch Vc2 91 with a U1A binding loop (WT-U1A). As to the kind of experiment: Gel-shift Kd measurement, WT-U1A RNA (Vc2 91 with a U1A binding loop). Details: species or system Vibrio cholerae.
Text: as §1, with “The complex was allowed to equilibrate for 1 hour and bound and free c-di-GMP were separated by native (100 mM Tris/HEPES pH 7.5, 10 mM MgCl2, 0.1 mM EDTA) PAGE at 4° C.” left out, “Fraction bound was graphed versus RNA concentration and fit using KaleidaGraph to obtain Kds according to the equation:” left out

For test [4], the target named is GEMM riboswitch Vc2 110 (WT-110). The experiment in a line: Gel-shift Kd measurement, WT-110 RNA. The note with it: for Kd / binding (in words): gel-shift; for Kd: radiolabeled ligand, RNA WT-110, dash = no binding. The format is binding, Vibrio cholerae.
Text: as §1, §2
(§3) A gel-shift assay, which directly measures c-di-GMP binding to the GEMM RNA (FIG. 3A, B), was developed in order to test biochemical predictions resulting from the GEMM riboswitch structure. Specifically, radiolabeled c-di-GMP was incubated with the riboswitch and the RNA bound ligand was separated from the free on a native polyacrylamide gel.
This assay was used to measure a binding constant for the crystallized RNA and also to verify that this method gave the Kd measurements similar to what had been fond using in-line probing. To validate the method, Vc2 110 was used and found to have a Kd of ˜7 nM. This value agrees well with affinities obtained previously by in-line probing for this same sequence (Sudarsan, N. et al. Riboswitches in eubacteria sense the second messenger cyclic di-GMP. Science 321, 411-3). A RNA corresponding to the crystallization construct with no U1A binding loop (Vc2 91) was then tested. […] The RNA used in the crystallographic studies (Vc2 91 with a U1A binding loop) bound with a Kd slightly weaker than wild-type, but is within 9-fold of the original value.

Test [5] relates to GEMM riboswitch C92U mutant (WT-110 background). As to the kind of experiment: Gel-shift Kd measurement, C92U mutant RNA. The format is binding, Vibrio cholerae. To be noted: for Kd / binding (in words): gel-shift; for Kd: RNA C92U, dash = no binding; for binding (in words): C92U RNA.
Text: as §1, §2, §3
(§4) The three nucleotides directly involved in ligand recognition (G20, A47 and C92) were mutated and affinity for c-di-GMP was measured by gel shift analysis in the context of the WT-110 nucleotide background (Table 1) (Sudarsan, N. et al. Riboswitches in eubacteria sense the second messenger cyclic di-GMP. Science 321, 411-3). Mutational analysis supports the crystallographically observed base pair between a conserved cytidine, C92, and c-di-GMP. […] By mutating it to an A or G, this ability to base pair with the ligand is lost. The large effect that these mutations have on ligand binding confirms that C92 is making an important contact with Gβ. The minor affect seen upon mutation to a U is in a reasonable range given the potential to form a wobble pair with Gβ. A natural GEMM sequence has been identified that lacks a C at position 92, but instead has a C at position 93. This RNA can bind c-di-GMP with an affinity of approximately 1 uM.

Test [6] has as its system GEMM riboswitch G20A mutant (WT-110 background). The experiment in a line: Gel-shift Kd measurement, G20A mutant RNA. The format is binding, Vibrio cholerae. From the text:
(§5) Point mutants were cloned using the Quik Change protocol. Radiolabeled c-di-GMP was obtained enzymatically according to published procedures and purified by polyacrylamide gel electrophoresis (PAGE) (Paul, R. et al. Cell cycle-dependent dynamic localization of a bacterial response regulator with a novel di-guanylate cyclase output domain. Genes & Development 18, 715-27 (2004); Christen, M., Christen, B., Folcher, M., Schauerte, A. & Jenal, U. Identification and characterization of a cyclic di-GMP-specific phosphodiesterase and its allosteric control by GTP. J Biol Chem 280, 30829-37 (2005)). A constitutively active DGC, PleD* was expressed and purified as described and the reaction was initiated using [α-^32P]GTP as the substrate (Paul, R. et al. Cell cycle-dependent dynamic localization of a bacterial response regulator with a novel di-guanylate cyclase output domain. Genes & Development 18, 715-27 (2004)). […] A STORM phosphorimager was used to scan gels and the bands were quantitated using ImageQuant. […]
(§6) The three nucleotides directly involved in ligand recognition (G20, A47 and C92) were mutated and affinity for c-di-GMP was measured by gel shift analysis in the context of the WT-110 nucleotide background (Table 1) (Sudarsan, N. et al. Riboswitches in eubacteria sense the second messenger cyclic di-GMP. Science 321, 411-3). […]

The test system of test [7] is GEMM riboswitch G20C mutant (WT-110 background). As to the kind of experiment: Gel-shift Kd measurement, G20C mutant RNA. The format is binding, Vibrio cholerae.
Text: as §1
F=fraction bound; F∞=fraction bound at saturation; C=riboswitch concentration […]
as §6

Test [8] has as its system GEMM riboswitch G20U mutant (WT-110 background). The experiment in a line: Gel-shift Kd measurement, G20U mutant RNA. The class given is binding, Vibrio cholerae.
Text: as §5, §6

The test system of test [9] is GEMM riboswitch A47C mutant (WT-110 background). The experiment in a line: Gel-shift Kd measurement, A47C mutant RNA. The format is binding, Vibrio cholerae.
Text: as §5, §6

Test [10] deals with GEMM riboswitch A47G mutant (WT-110 background). The experiment in a line: Gel-shift Kd measurement, A47G mutant RNA. The note with it: for Kd: gel-shift, RNA A47G, dash = no binding. The format is binding, Vibrio cholerae.
Text: as §1, §2, §3
as §4, with “A natural GEMM sequence has been identified that lacks a C at position 92, but instead has a C at position 93. This RNA can bind c-di-GMP with an affinity of approximately 1 uM.” left out

Test [11] relates to GEMM riboswitch A47U mutant (WT-110 background). The experiment in a line: Gel-shift Kd measurement, A47U mutant RNA. The format is binding, Vibrio cholerae.
Text: as §5, §6

Test [12] concerns GEMM riboswitch C92 to A mutant (WT-110 background). As to the kind of experiment: Gel-shift affinity measurement, C92A mutant RNA. The format is binding, Vibrio cholerae.
Text: as §5, §6

Test [13] has as its system GEMM riboswitch C92 to G mutant (WT-110 background). As to the kind of experiment: Gel-shift affinity measurement, C92G mutant RNA. The format is binding, Vibrio cholerae.
Text: as §5, §6

Test [14] concerns the target natural GEMM sequence that lacks a C at position 92 but has a C at position 93. As to the kind of experiment: Binding of c-di-GMP to natural GEMM sequence with C at position 93. To be noted: read-out: affinity. The procedure:
as §4

The test system of test [15] is natural GEMM sequence lacking C at position 92, C at position 93 mutated to an A. As to the kind of experiment: Binding of c-di-GMP to natural GEMM sequence with C93 mutated to A. The method, then: as §4
In test [16] the target is GEMM riboswitch. To be noted: Sudarsan et al. 2008; read-out: affinity; cited from earlier work.
Test [17] addresses known c-di-GMP binding proteins. The note with it: range from 50 nM to several micromolar; Hengge 2009; read-out: binding affinity; cited from earlier work.

Molecules are shown by their SMILES.

As for `Nc1ncnc2c1ncn2[C@@H]1O[C@@H]2COP(=O)(O)O[C@H]3[C@@H](O)[C@H](n4cnc5c(N)ncnc54)O[C@@H]3COP(=O)(O)O[C@H]2[C@H]1O` [c-di-AMP, cyclic diadenosine monophosphate], the “bound c-di-AMP better than c-di-GMP” value in test [1] (C92U/G20A double mutant) was “approximately 6 fold”. The Kd in [1] stood at 540 ± 29 nM.
As for `Nc1nc2c(ncn2[C@@H]2O[C@@H]3COP(=O)(O)O[C@H]4[C@@H](O)[C@H](n5cnc6c(=O)[nH]c(N)nc65)O[C@@H]4COP(=O)(O)O[C@H]3[C@H]2O)c(=O)[nH]1` [c-di-GMP, cyclic diguanosine monophosphate], the Kd in test [2] came to 6.4 ± 2.8 nM; in test [3] (gel-shift, radiolabeled ligand, RNA WT-U1A, dash = no binding seen), 55 ± 14 nM; in test [4], 7.4 ± 2.4 nM; in test [5], 43 ± 19 nM; in test [1] it was 3200 ± 600 nM; in test [6] (gel-shift, RNA G20A, dash = no binding), 4.7 ± 1.3 nM. Also, the Kd in test [7] (gel-shift, RNA G20C, dash = no binding) was 13 ± 1.2 nM; in test [8] (gel-shift, RNA G20U, dash = no binding) it was 330 ± 150 nM; in test [9] (gel-shift, RNA A47C, dash = no binding), 8500 ± 3000 nM; in test [10], 4200 ± 1700 nM; in [11] (gel-shift, RNA A47U, dash = no binding), 3500 ± 520 nM; in [14] it was about 1000 nM. The Kd in test [16] is about 1 nM; in test [17], at least 50 nM. Besides, the “Kd weaker than wild-type” value in test [3] (Vc2 91 with U1A binding loop vs original value) was at most 9 fold. For the same compound, the loss in affinity in test [5] (C92U vs wild-type, c-di-GMP) is reported as 6 fold; in [8] (G20U vs wild-type), “approximately 45 fold”. In addition, the “effect of mutation on affinity (in words)” value in test [6] (G20 to A) is “maintains approximately wild-type affinity”; in test [7] (G20 to C), “maintains approximately wild-type affinity”; in test [12], “reduces affinity for c-di-GMP substantially”; in [13], “reduces affinity for c-di-GMP substantially”. Besides, the reduction in affinity in test [7] (G20C vs wild-type) was found to be 2 fold. Moreover, the “decrease in binding affinity” value in test [9] (A47 mutated to C vs wild-type), in [10] (A47 mutated to G vs wild-type) and in [11] (A47 mutated to U vs wild-type) was “approximately 1000 fold” in each case. Besides, in [15], the “affinity (in words)” value is reported as “all affinity for c-di-GMP is lost”.
Turning to `Nc1nc2c(ncn2[C@@H]2O[C@H](COP(=O)(O)O[C@H]3[C@@H](O)[C@H](n4cnc5c(N)ncnc54)O[C@@H]3COP(=O)(O)O)[C@@H](O)[C@H]2O)c(=O)[nH]1` [pApG], the “binding (in words)” value in [5] is recorded as “does not bind”.
`Nc1nc2c(ncn2[C@@H]2O[C@H](COP(=O)(O)O)[C@@H](OP(=O)(O)OC[C@H]3O[C@@H](n4cnc5c(N)ncnc54)[C@H](O)[C@@H]3O)[C@H]2O)c(=O)[nH]1` [pGpA]: the “binding (in words)” value in test [4] (wild-type sequence) is “not”; in test [5], “binding was observed”. For the same compound, in test [5] (C92U RNA with pGpA vs wild-type RNA with pGpG), the “affinity lower than that of the wild-type RNA for pGpG” value is reported as “approximately 27 fold”. The Kd in test [5] amounted to 16000 ± 5200 nM.
For the compound `Nc1nc2c(ncn2[C@@H]2O[C@H](COP(=O)(O)O[C@H]3[C@@H](O)[C@H](n4cnc5c(=O)[nH]c(N)nc54)O[C@@H]3COP(=O)(O)O)[C@@H](O)[C@H]2O)c(=O)[nH]1` [pGpG], the Kd in test [4] turned out to be 490 ± 150 nM; in [10], 1400 ± 120 nM. The figures for the “binding (in words)” value in test [4] (wild-type sequence) and in [5] were “binds” and “does not bind”, respectively. The “affinity lower than that of the cyclic ligand” value in test [4] (wild-type sequence, pGpG vs c-di-GMP) was “approximately 66 fold”. The “binds the linear form better than c-di-GMP” value in [10] (A47G, pGpG vs c-di-GMP) was 3 fold.
